Where two headings read alike, the source gives them in different places.
Tests used:
[1] = system: HBV (HepG2.117 cell line, inducibly HBV producing); assay: Anti-HBV activity: intracellular HBV DNA by real-time PCR in HepG2.117 cells after 3 days of treatment; format: cell-based, hepatitis B virus
Summary of the method: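 Inducible HBV-producing HepG2.117 line (Tet-off); 3-day exposure to serially diluted compound after induction; real-time PCR of intracellular viral DNA.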

in vitro = format: cell-based; details: human, HepG2 or HepG2.117 cells, ATPlite, mean value; for CC50 at 4 days: 4-days incubation (values marked with *)
Summary of the method: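 Luminescent ATP quantitation served as the viability endpoint following a 3- or 4-day incubation with test compounds.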

[2] = Hepatitis B virus, HepG2.117, 72 h, HepG2.117 cells, 3 days of treatment, intracellular HBV DNA by real-time PCR; mean value; read-out: EC50 (μM, mean value)
[3] = 3-days incubation (unmarked values)
[4] = Hepatitis B virus, HepG2.117, 72 h, HepG2.117 cells, intracellular HBV DNA by real-time PCR, 3 days of treatment, mean value; read-out: EC50 (μM, mean value)
[5] = 3-days incubation (not marked with *)

SMILES | EC50 [1, 2] [µM] | CC50 at 3 days (in vitro; [3]) [µM] | EC50 [1, 4] [µM] | CC50 at 3 days (in vitro; [5]) [µM] | CC50 at 4 days (in vitro) [µM]
CCOC(=O)c1ccc(-n2c(NC(C)C)nc3c(c2=O)C[C@@H](C)N(C(=O)c2ccc(Cl)c(Cl)c2)C3)cc1 [Compound C153, ethyl 4-[(6R)-7-(3,4-dichlorobenzoyl)-6-methyl-4-oxo-2-[(propan-2-yl)amino]-5,6,7,8-tetrahydropyrido[3,4-d]pyrimidin-3(4H)-yl]benzoate] | 0.75 | > 50 | – | – | –
CNC(=O)c1ccc(-n2c(NC(C)C)nc3c(c2=O)C[C@@H](C)N(C(=O)c2cc4ccc(OC)cc4n2C)C3)cc1 [Compound C516] | – | – | 2.68 | > 50 | –
C[C@@H]1Cc2c(nc(NCc3ccncn3)n(-c3ccc(S(C)(=O)=O)cc3)c2=O)CN1C(=O)c1ccc(Cl)c(Cl)c1 [Compound C150, (6R)-7-(3,4-dichlorobenzoyl)-3-[4-(methanesulfonyl)phenyl]-6-methyl-2-{[(pyrimidin-4-yl)methyl]amino}-5,6,7,8-tetrahydropyrido[3,4-d]pyrimidin-4(3H)-one] | 5.44 | > 50 | – | – | –
CNC(=O)c1ccc(-n2c(NCc3ccc4cc[nH]c4c3)nc3c(c2=O)C[C@@H](C)N(C(=O)c2ccc(Cl)c(Cl)c2)C3)cc1 [Compound C325, 4-[(6R)-7-(3,4-dichlorobenzoyl)-2-{[(1H-indol-6-yl)methyl]amino}-6-methyl-4-oxo-5,6,7,8-tetrahydropyrido[3,4-d]pyrimidin-3(4H)-yl]-N-methylbenzamide] | 0.42 | 22.8 | – | – | –
COc1ccccc1-n1c(NCc2ccncc2)nc2c(c1=O)CCN(C(=O)c1ccc(Cl)c(Cl)c1)C2 [Compound C5, 7-(3,4-dichlorobenzoyl)-3-(2-methoxyphenyl)-2-{[(Pyridin-4-yl)methyl]amino}-5,6,7,8-tetrahydropyrido[3,4-d]pyrimidin-4(3H)-one] | 5.35 | – | – | – | > 50
Cc1cc(-c2ccc(-n3c(NC(C)C)nc4c(c3=O)C[C@@H](C)N(C(=O)c3ccc(Cl)c(Cl)c3)C4)cc2)n[nH]1 [Compound C243, (6R)-7-(3,4-dichlorobenzoyl)-6-methyl-3-[4-(5-methyl-1H-pyrazol-3-yl)phenyl]-2-[(propan-2-yl)amino]-5,6,7,8-tetrahydropyrido[3,4-d]pyrimidin-4(3H)-one] | 0.23 | 28.7 | – | – | –
COc1ccc(CNc2nc3c(c(=O)[nH]2)CCN(C(=O)c2ccc(I)cc2)C3)cc1 [Compound C117, 7-(4-iodobenzoyl)-2-{[(4-methoxyphenyl)methyl]amino}-5,6,7,8-tetrahydropyrido[3,4-d]pyrimidin-4(3H)-one] | 9.61 | 43.5 | – | – | –
COc1ccccc1-n1c(NC(C)C)nc2c(c1=O)CCN(C(=O)c1ccc(Cl)c(Cl)c1)C2 [Compound C24, 7-(3,4-dichlorobenzoyl)-3-(2-methoxyphenyl)-2-[(propan-2-yl)amino]-5,6,7,8-tetrahydropyrido[3,4-d]pyrimidin-4(3H)-one] | 2.25 | – | – | – | > 50
CNC(=O)c1ccc(-n2c(NC(C)C)nc3c(c2=O)C[C@@H](C)N(C(=O)c2ccc4[nH]c(=O)n(C)c4c2)C3)cc1 [Compound C509] | – | – | > 25 | > 50 | –
CC(C)Nc1nc2c(c(=O)n1-c1ccc(S(C)(=O)=O)cc1)CCN(C(=O)c1ccc(Cl)c(Cl)c1)C2 [Compound C85, 7-(3,4-dichlorobenzoyl)-3-[4-(methanesulfonyl)phenyl]-2-[(propan-2-yl)amino]-5,6,7,8-tetrahydropyrido[3,4-d]pyrimidin-4(3H)-one] | 0.85 | > 50 | – | – | –
CNC(=O)c1ccc(-n2c(N[C@@H]3CCCC3(C)C)nc3c(c2=O)C[C@@H](C)N(C(=O)c2ccc(Cl)c(Cl)c2)C3)cc1 (single isomer, unassigned) [Compound C318, 4-[(6R)-7-(3,4-dichlorobenzoyl)-2-{[(1*R)-2,2-dimethylcyclopentyl]amino}-6-methyl-4-oxo-5,6,7,8-tetrahydropyrido[3,4-d]pyrimidin-3(4H)-yl]-N-methylbenzamide] | 0.68 | 23.2 | – | – | –
CNC(=O)c1ccc(-n2c(N[C@@H]3CCOc4ccccc43)nc3c(c2=O)C[C@@H](C)N(C(=O)c2ccc(Cl)c(Cl)c2)C3)cc1 (single isomer, unassigned) [Compound C526a] | – | – | 0.28 | > 50 | –
CNC(=O)c1ccc(-n2c(NC(C)C)nc3c(c2=O)C[C@@H](C)N(C(=O)c2ccc(Br)cc2OC(F)F)C3)cc1 [Compound C522] | – | – | 0.77 | > 50 | –
CC(C)Nc1nc2c(c(=O)n1-c1ccc(C(=O)N3CCN(C)CC3)cc1)C[C@@H](C)N(C(=O)c1ccc(Cl)c(Cl)c1)C2 [Compound C169, (6R)-7-(3,4-dichlorobenzoyl)-6-methyl-3-[4-(4-methylpiperazine-1-carbonyl)phenyl]-2-[(propan-2-yl)amino]-5,6,7,8-tetrahydropyrido[3,4-d]pyrimidin-4(3H)-one] | 0.15 | 30.7 | – | – | –
CNC(=O)c1ccc(-n2c(N[C@@H](C)c3ccc(C(F)(F)F)cc3)nc3c(c2=O)C[C@@H](C)N(C(=O)c2ccc(Cl)c(Cl)c2)C3)nc1 [Compound C655] | – | – | 0.08 | 9.1 | –
Cc1c(C(=O)N2CCc3c(nc(NC(C)C)n(-c4ccc(S(C)(=O)=O)cc4)c3=O)C2)[nH]c2ccccc12 [Compound C147, 3-[4-(methanesulfonyl)phenyl]-7-(3-methyl-1H-indole-2-carbonyl)-2-[(propan-2-yl)amino]-5,6,7,8-tetrahydropyrido[3,4-d]pyrimidin-4(3H)-one] | 1.88 | > 50 | – | – | –
CNC(=O)c1ccc(-n2c(NC(C)C)nc3c(c2=O)C[C@@H](C)N(C(=O)c2ccc(Br)c(C)c2)C3)cc1 [Compound C589] | – | – | 0.04 | > 50 | –
CC(C)Nc1nc2c(c(=O)n1-c1ccc(S(C)(=O)=O)cc1)CCN(C(=O)c1cc3ccc(F)cc3[nH]1)C2 [Compound C137, 7-(6-fluoro-1H-indole-2-carbonyl)-3-[4-(methanesulfonyl)phenyl]-2-[(propan-2-yl)amino]-5,6,7,8-tetrahydropyrido[3,4-d]pyrimidin-4(3H)-one] | 0.3 | > 50 | – | – | –
CNC(=O)c1ccc(-n2c(N[C@H](c3ccc(OC)cc3)C(C)C)nc3c(c2=O)C[C@@H](C)N(C(=O)c2ccc(Cl)c(Cl)c2)C3)cc1 (single isomer, unassigned) [Compound C422b] | – | – | 0.28 | 17.2 | –
CNC(=O)c1ccc(-n2c(N[C@H](c3ccccc3)C3CC3)nc3c(c2=O)C[C@@H](C)N(C(=O)c2ccc(Cl)c(Cl)c2)C3)cc1 (single isomer, unassigned) [Compound C343, 4-[(6R)-2-{[(*S)-cycopropyl(phenyl)methyl]amino}-7-(3,4-dichlorobenzoyl)-6-methyl-4-oxo-5,6,7,8-tetrahydropyrido[3,4-d]pyrimidin-3(4H)-yl]-N-methylbenzamide] | 0.19 | 13.7 | – | – | –
CC(C)Nc1nc2c(c(=O)n1CCNS(C)(=O)=O)CCN(C(=O)c1ccc(Cl)c(Cl)c1)C2 [Compound C112, N-{2-[7-(3,4-dichlorobenzoyl)-4-oxo-2-[(propan-2-yl)amino]-5,6,7,8-tetrahydropyrido[3,4-d]pyrimidin-3(4H)-yl]ethyl}methanesulfonamide] | 11.5 | > 50 | – | – | –
CNC(=O)c1ccc(-n2c(NCc3cccc(-c4nnc[nH]4)c3)nc3c(c2=O)C[C@@H](C)N(C(=O)c2ccc(Cl)c(Cl)c2)C3)cc1 [Compound C597] | – | – | 9.49 | > 50 | –
CNC(=O)c1ccc(-n2c(N[C@H]3CCOc4cc(OC)ccc43)nc3c(c2=O)C[C@@H](C)N(C(=O)c2ccc(Cl)c(Cl)c2)C3)cc1 (single isomer, unassigned) [Compound C527b] | – | – | 0.65 | > 50 | –
CNC(=O)c1ccc(-n2c(N[C@@H](C)c3cc(C)no3)nc3c(c2=O)C[C@@H](C)N(C(=O)c2ccc(Cl)c(Cl)c2)C3)cc1 (single isomer, unassigned) [Compound C433b] | – | – | 0.73 | > 50 | –
CC(=O)Nc1ccc(-n2c(N[C@H](C)c3ccc4[nH]ncc4c3)nc3c(c2=O)C[C@@H](C)N(C(=O)c2ccc(Cl)c(Cl)c2)C3)cc1 (single isomer, unassigned) [Compound C462a] | – | – | 1.24 | > 50 | –
CC(C)Nc1nc2c(c(=O)n1-c1ccc(N3CC[C@@H](O)C3)cc1)C[C@@H](C)N(C(=O)c1ccc(Cl)c(Cl)c1)C2 [Compound C201, (6R)-7-(3,4-dichlorobenzoyl)-3-{4-[(3R)-3-hydroxypyrrolidin-1-yl]phenyl}-6-methyl-2-[(propan-2-yl)amino]-5,6,7,8-tetrahydropyrido[3,4-d]pyrimidin-4(3H)-one] | 0.2 | 36.8 | – | – | –
CNC(=O)c1ccc(-n2c(N[C@H](C)c3cccc(OC)c3)nc3c(c2=O)C[C@@H](C)N(C(=O)c2ccc(Cl)c(Cl)c2)C3)cc1 (single isomer, unassigned) [Compound C394a] | – | – | 32.5 | > 50 | –
CNC(=O)c1ccc(-n2c(NCc3ncn(-c4ccccc4)n3)nc3c(c2=O)C[C@@H](C)N(C(=O)c2ccc(Cl)c(Cl)c2)C3)cc1 [Compound C556] | – | – | 0.57 | 25.6 | –
